# Test results: patent US20080206322A1, “Pharmaceutical Multiparticulate Composit Ion Comprising Mycophenolic Acid or Myco Phenolate Sodium and Combination Compositions with Rapamycin” (NOVARTIS AG, priority 2004, published 2008)
# Read-outs that look alike come from different tables or passages of the source.
# Assay: Solubility in acidic medium
# Format: physicochemical
smiles,measurement,setting,value
COc1c(C)c2c(c(O)c1C/C=C(\C)CCC(=O)O)C(=O)OC2 [mycophenolic acid],solubility in acidic medium,,low solubility
same,solubility in acidic medium,listed as MPA,poor solubility
